The values that follow come from US20020128326A1, “TOPICAL IMMUNOMODULATING COMPOSITIONS FOR TREATMENT OF AIDS, HEPATITIS B&C, OTHER INFECTIOUS DISEASES, AND CANCER” (priority 1998, published 2002).

Series [1] has as its system HIV-1. Briefly: HIV viral load in patients sensitized and rechallenged topically. The series is classed as in vivo, human. The text has this:
As examples of the HIV viral load reducing effects of the subject compositions, two patients were sensitized with 0.400% diphenylcyclopropenone in a vehicle consisting of equal parts of polyoxysorbitan 20 monooleate and isopropyl myristate and subsequently rechallenged with 0.100% diphenylcyclopropenone in the same vehicle two weeks, four weeks and eight weeks later.

The conditions of series [2]: cited from earlier work.
For series [3] the following is noted: rodents; cited from earlier work.

SMILES strings stand for the structures.

Regarding `O=c1c(-c2ccccc2)c1-c1ccccc1` [diphenylcyclopropenone], the “HIV-1 RNA Copies/1.0 ml Plasma” value was 400 Copies Copies/1.0 ml Plasma in series [1] (Patient #1, Baseline); 79 Copies/1.0 ml Plasma in series [1] (Patient #1, Eight Weeks, sensitized 0.400%, rechallenged 0.100% topically); 60 Copies/1.0 ml Plasma in series [1] (Patient #1, Four Weeks, sensitized 0.400%, rechallenged 0.100% topically); 118 Copies/1.0 ml Plasma in series [1] (Patient #1, Two Weeks, sensitized 0.400%, rechallenged 0.100% topically); 440 Copies/1.0 ml Plasma in series [1] (Patient #2, Baseline); 351 Copies/1.0 ml Plasma in series [1] (Patient #2, Eight Weeks, sensitized 0.400%, rechallenged 0.100% topically).

For `CC(C)=O` [Acetone], the “toxic effects with repeated human use” value in series [2] is “epidermal erythema, dryness, headache, bronchial irritation, CNS effects including fatigue and excitement”. Also, the LD/50 in series [3] is 10.7 mg/kg.
